Consider 10 molecules from ChEMBL document CHEMBL1201862, “PubChem BioAssay data set” (2004).

Common to all, as to assay: inhibition of tumour cell growth, NCI panel, 48 h
In assay [1] the test system is 786-0.
Assay [2] deals with OVCAR-5.
Assay [3] has as its system OVCAR-8.
Assay [4] relates to HOP-62.
Assay [5] concerns UACC-257.
For assay [6], the system named is UACC-62.
The test system of assay [7] is TK-10.
For assay [8], the system named is RXF 393.
In assay [9] the test system is MOLT-4.
For assay [10], the system named is SR.
Assay [11] deals with CCRF-CEM.
In assay [12] the test system is SF-295.
Assay [13] concerns OVCAR-3.
Assay [14] relates to Malme-3M.
Assay [15] relates to NCI-H522.
The test system of assay [16] is RPMI-8226.
For assay [17], the system named is IGROV-1.
Assay [18] deals with OVCAR-4.
Assay [19] deals with LOX IMVI.
In assay [20] the test system is SK-OV-3.

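These data come from cells grown in 96-well plates and exposed to compound for 48 hours at five concentrations. Here, GI50 denotes the concentration required for 50% inhibition of growth.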 Calls of active or inactive are those of the source. Rule as the data show it: active = GI50 up to about 1.1 µM and inactive = higher.

In the case of `Oc1cc(Cl)cc2cc(Br)cnc12`, the GI50 was 9.86 µM (inactive) in [1]; 8.95 µM (inactive) in [2]; 2.3 µM (inactive) in assay [3]; 3.4 µM (inactive) in [4]; 2.63 µM (inactive) in assay [5]; 6.27 µM (inactive) in assay [6]. The GI50 is 41.3 µM (inactive) in assay [7]; 2.29 µM (inactive) in assay [8]; 2.04 µM (inactive) in [9]; 1.42 µM (inactive) in [10]; 1.9 µM (inactive) in [11]; 2.96 µM (inactive) in [12]. Further, the GI50 in assay [13] is 1.52 µM (inactive); in assay [14], 2.23 µM (inactive); in assay [15], 2.74 µM (inactive); in assay [16], 1.42 µM (inactive); in [17], 2.92 µM (inactive); in assay [18] it was 3.49 µM (inactive). The GI50 was 0.463 µM (active) in [19] and > 59.8 µM (inactive) in assay [20].

For the molecule `COc1ccc(C2c3cc4c(cc3OC(N3CCOCC3)C2C)OCO4)cc1OC` (stereo not given), the GI50 in [1] is 8.15 µM (inactive); in assay [2], 48.6 µM (inactive); in assay [3], 20.4 µM (inactive); in [4], 12 µM (inactive); in assay [5], 16.7 µM (inactive); in assay [6], 5.48 µM (inactive). For the same molecule, the GI50 is 15.6 µM (inactive) in [7]; 5.89 µM (inactive) in assay [8]; 4.48 µM (inactive) in assay [9]; 7.36 µM (inactive) in [10]; 4.28 µM (inactive) in [11]; 4.39 µM (inactive) in [12]. The GI50 in assay [13] was 3.3 µM (inactive); in assay [14], 11.1 µM (inactive); in assay [15] it was 5.51 µM (inactive); in assay [16] it was 6.18 µM (inactive); in assay [17] it was 7.64 µM (inactive); in assay [18], 15.8 µM (inactive). Further, the GI50 was 6.11 µM (inactive) in assay [19] and 5.24 µM (inactive) in [20].

Consider `CC1CCC(=O)C(C(O)CC2CC(=O)N(c3ccccc3)C(=O)C2)C1` (stereo not given), for which the GI50 in assay [1], in assay [2], in assay [3], in assay [4], in assay [5] and in [6] was > 100 µM (inactive) throughout. Also, the GI50 in assay [7], in [8], in assay [9], in [10], in [11] and in assay [12] was > 100 µM (inactive) throughout. The GI50 in [13], in assay [14], in assay [15], in assay [16], in assay [17] and in assay [18] was > 100 µM (inactive) in each case. Besides, the GI50 in [19] and in assay [20] was > 100 µM (inactive) in each case.

For `CC(Cc1ccc2c(c1)OCO2)N(C)C(=O)C1=CCN(C)CC1` (stereo not given), the GI50 in assay [1], in assay [2], in assay [3], in assay [4], in [5] and in [6] was > 100 µM (inactive) each time. Also, the GI50 in assay [7], in assay [8], in assay [9], in assay [10], in assay [11] and in [12] was > 100 µM (inactive) in each case. In addition, the GI50 in assay [13], in assay [14], in assay [15], in assay [16], in assay [17] and in assay [18] was > 100 µM (inactive) in each case. The GI50 in [19] and in [20] was > 100 µM (inactive) each time.

Take `CC(=O)n1nnc2ccc([N+](=O)[O-])cc21`: the GI50 in [1], in assay [2], in assay [3], in assay [4], in [5] and in assay [6] was > 100 µM (inactive) throughout. For the same molecule, the GI50 in [7], in assay [8], in assay [9], in assay [10], in assay [11] and in assay [12] was > 100 µM (inactive) in each case. Also, the GI50 in assay [13], in assay [14], in assay [15], in assay [16], in [17] and in assay [18] was > 100 µM (inactive) each time. The GI50 in [19] and in assay [20] was > 100 µM (inactive) in each case.

Turning to `CCOC(=O)/C=C1\Oc2ccccc2C1(C)O` (stereo not given), the GI50 in assay [1], in [2], in assay [3], in [4], in assay [5] and in assay [6] was > 100 µM (inactive) each time. Also, the GI50 in assay [7], in assay [8], in [9], in assay [10], in [11] and in assay [12] was > 100 µM (inactive) in each case. Besides, the GI50 in assay [13], in assay [14], in assay [15], in assay [16], in assay [17] and in [18] was > 100 µM (inactive) throughout. The GI50 in assay [19] and in [20] was > 100 µM (inactive) in each case.

With `Nc1nc(Cl)cc(NCC2(CO)CCC(OCc3ccccc3)C2)n1` (stereo not given), the GI50 was 35.2 µM (inactive) in assay [1]; 37.7 µM (inactive) in [2]; 22.1 µM (inactive) in assay [3]; 25.4 µM (inactive) in assay [4]; 12.8 µM (inactive) in [5]; 21.4 µM (inactive) in assay [6]. Further, the GI50 in assay [7] is 11.2 µM (inactive); in assay [8] it was 27 µM (inactive); in assay [9] it was 4.99 µM (inactive); in [10] it was 4.06 µM (inactive); in assay [11], 14.6 µM (inactive); in assay [12], 31 µM (inactive). The GI50 in assay [13] was 30.5 µM (inactive); in assay [14] it was 20.8 µM (inactive); in assay [15], 1.31 µM (inactive); in assay [16], 34.4 µM (inactive); in [17] it was 18.2 µM (inactive); in assay [18], 12.1 µM (inactive). Further, the GI50 in [19] is 2.83 µM (inactive); in assay [20] it was 11.1 µM (inactive).

As for `Cc1nc2ccccc2cc1C[N+]12CN3CN(CN(C3)C1)C2`, the GI50 in assay [1] was 11.5 µM (inactive); in [2], 23.8 µM (inactive); in assay [3], 30.3 µM (inactive); in assay [4], 24.5 µM (inactive); in assay [5], 18.4 µM (inactive); in [6], 17.2 µM (inactive). Moreover, the GI50 in [7] was 24.9 µM (inactive); in assay [8] it was 16.6 µM (inactive); in assay [9] it was 34 µM (inactive); in [10], 19 µM (inactive); in [11] it was 0.962 µM (active); in [12], 22.9 µM (inactive). In addition, the GI50 in assay [13] was 28.1 µM (inactive); in [14], 17.3 µM (inactive); in [15], 18.9 µM (inactive); in assay [16] it was 3.4 µM (inactive); in [17] it was 31.4 µM (inactive); in [18] it was 22.3 µM (inactive). Further, the GI50 in [19] is 14.7 µM (inactive); in assay [20] it was 32.7 µM (inactive).

Consider `C=C(C)COc1ccc2c(c1)CCC1C2CCC2(C)C(=O)/C(=N/O)CC12` (stereo not given), for which the GI50 in assay [1] is 2.86 µM (inactive); in assay [2] it was 3.93 µM (inactive); in [3], 6.92 µM (inactive); in assay [4], 5.43 µM (inactive); in assay [5] it was 11.3 µM (inactive); in assay [6], 14.9 µM (inactive). For the same molecule, the GI50 was 1.35 µM (inactive) in assay [7]; 1.19 µM (inactive) in assay [8]; 1.76 µM (inactive) in assay [9]; 0.966 µM (active) in [10]; 1.94 µM (inactive) in assay [11]; 4.37 µM (inactive) in assay [12]. Moreover, the GI50 in assay [13] is 3.43 µM (inactive); in assay [14], 13.8 µM (inactive); in assay [15], 3.58 µM (inactive); in [16], 2.39 µM (inactive); in [17] it was 1.61 µM (inactive); in assay [18], 2.39 µM (inactive). Besides, the GI50 was 3.08 µM (inactive) in [19] and 8.55 µM (inactive) in assay [20].

For the molecule `COc1ccc(-c2oc3cc(-c4cc5oc(-c6ccc(OC)cc6)c(-c6ccc(OC)cc6)c5cc4OC)c(OC)cc3c2-c2ccc(OC)cc2)cc1`, the GI50 in [1], in assay [2], in assay [3], in assay [4], in assay [5] and in [6] was > 100 µM (inactive) throughout. The GI50 in assay [7], in assay [8], in [9], in [10], in [11] and in assay [12] was > 100 µM (inactive) throughout. Further, the GI50 in assay [13], in [14], in assay [15], in assay [16], in [17] and in assay [18] was > 100 µM (inactive) in each case. Moreover, the GI50 in [19] and in assay [20] was > 100 µM (inactive) in each case.
